Test results as given in US20030139443A1, “Use of tachykinin antagonists, including NK-1 receptor antagonists, to modify unwanted behavior in dogs, cats and horses” (priority 2001, published 2003).

Assays:
Format in all cases: in vivo, dog
[1] = tested on: Adult dogs with spontaneous anxiety to isolation and/or unfamiliar humans; assay: Example 1: anxiety behaviors of dogs during 15-minute separation phase, compound of Formula 1 vs. placebo, double-blind crossover; conditions: for Hyperactivity Mean, Geometric Mean Time / Vocalization Mean, Geometric Mean Time: 0.1 mg/kg SC once daily, Separation Phase, vs. placebo
Procedure: To evaluate the anxiolytic effects of a compound of Formula 1 vs. placebo after seven and twenty-one days of parenteral dosing at 0.1 mg/kg SID, the following procedure was followed.
Adult dogs with spontaneous anxiety to isolation and/or unfamiliar humans were treated for twenty-one consecutive days with the compound of Formula 1 or a placebo control. Dogs were tested after seven and twenty-one days of dosing. “Day 0” was used to identify the initial day of dosing. The study was conducted using a double-blind crossover design. Treatment periods were 21 days in duration, with a 28 day washout period between treatments. Dogs were randomly assigned to treatment groups such that those receiving compound at the first replicate received placebo on the second replicate. The placebo treatments served as the negative control.
All study participants were blinded to treatment groups. The compound of Formula 1 was administered at a dose of 0.1 mg/kg. The volume of vehicle control used for the placebo treatments was equivalent to the calculated volume of test compound that would have been administered had the animal been receiving drug. All test articles were administered by subcutaneous injection once daily.
On the day of testing, each dog was placed in a cage in an isolated room for 15 minutes. A hidden observer timed any anxious behavior. Animals were tested on dosing day 6 and day 20, starting 2 hours after the dose of the day.
Abnormal anxiety behaviors were studied. Observations were made on two different anxiety behaviors during a 15-minute separation phase. These behaviors are vocalization (barking, crying, growling) and hyperactivity (jumping, pacing, circling).

[2] = tested on: dogs, anxiety associated with separation and with novel sight and sound stimuli; assay: Example 2: canine anxiety model, separation phase and stimulation phase, various dosages of compound of Formula 1
Procedure: The present invention also concerns a method for testing compounds for anxiolytic effect in dogs. The model is designed to induce separation anxiety as well as anxiety due to novel visual and auditory stimuli. To determine whether a test compound has an anxiolytic effect in dogs, separation anxiety and anxiety associated with novel sight and sound stimuli are measured both with and without administration of the test compound. In one preferred embodiment, observations are made on five different anxiety behaviors during a 15-minute separation phase and a 15-minute stimulation phase. These anxiety behaviors are vocalization (barking, crying, growling); hyperactivity (jumping, pacing, circling); destruction (chewing, pawing, digging); salivation; and tremor. […] In addition to direct observation, dogs are videotaped during testing for documentation of behaviors. In one preferred embodiment, a dog is removed from a group pen and placed in an isolation cage. A tester, positioned behind a screen out of view, starts a timer for 15 minutes and a video recorder. […] At the end of the separation phase, the timer is re-set to 15 minutes and a child-size doll mounted on a remote controlled car is driven around the pen continuously. After 10 minutes, the doll and car are driven behind the screen and a child's fazer gun with a variety of sounds is continually activated for 5 minutes. At the end of the stimulation phase, the accumulated time for each behavior is recorded and the video recorder stopped. The dog is removed from the isolation cage and returned to the group pen. Preferably, a complete cross-over study design with test compound and placebo is used. Each treatment period is 21 days in length. Study “day 0” is used to designate the initial day of dosing. Anxiety testing is conducted on study days 6 and 20 within each period. Animals are allocated to treatment group, sequence, pen and evaluation order using a randomization plan. Dogs remain within the same sequence during progression of the cross-over phases of the study so that all possible treatment orders are evenly represented. Preferably, “day 0” is staggered such that 3-6 dogs are evaluated per day. Treatment administration is adjusted on testing days such that each animal is tested at the predicted Cmax for the test compound. Anxiety testing is preferably conducted between 11 AM and 4 PM to account for time-of-day variations in behavior. Animals are fed at the conclusion of testing. A three-week washout is observed between periods. Various dosages of the compound of Formula 1 were tested to determine an optimal dose. Anxiety associated with separation and with novel sight and sound stimuli was measured. Observations are made on two different anxiety behaviors during a 15-minute separation phase and a 15-minute stimulation phase. These behaviors are vocalization (barking, crying, growling) and hyperactivity (jumping, pacing, circling). […] In addition to direct observation, dogs are videotaped during testing for documentation of behaviors. The dog is removed from a group pen and placed in an isolation cage in an adjacent room. The tester, positioned behind a screen out of view, starts a timer for 15 minutes and the video recorder. […] At the end of the separation phase, the timer is re-set to 15 minutes and a child-size doll mounted on a remote controlled car is driven around the pen continuously. After 10 minutes, the doll and car are driven behind the screen and a child's fazer gun with a variety of sounds is continually activated for 5 minutes. At the end of the stimulation phase, the accumulated time for each behavior is recorded and the video recorder stopped. The dog is removed from the isolation cage and returned to the group pen.

[3] = tested on: Adult dogs, separation behavior; assay: Example 3: behavior scores in dogs after ten consecutive oral doses of compound of Formula 2 vs. placebo, cross-over; conditions: 5 mg/kg oral BID, 10 doses
Procedure: Adult dogs received ten consecutive oral doses of a compound of Formula 2 at 5 mg/kg BID or placebo in a cross-over design and effects on behavior were determined beginning one-hour post-dose.
Appropriate amounts of the compound of Formula 2 were weighed and placed in capsules. Capsules were back-filled with dextrose.
Capsules were administered by placing them in the back of the throat and allowing the dogs to swallow. On the day of behavior testing, dogs were fasting at dosing.
Dogs were divided equally into two treatment groups. Treatment Group 1 received 10 consecutive oral doses of the compound of Formula 2 BID at 5 mg/kg and Treatment Group 2 received 10 consecutive oral dextrose placebos BID. At the conclusion of the first half of the study, the protocol was repeated and dogs in Treatment Group 1 received 10 consecutive oral dextrose placebos BID and dogs in Treatment Group 2 received 10 consecutive oral doses of the compound of Formula 2 BID at 5 mg/kg.
Dogs began compound dosing at 1830 and continued for 10 consecutive BID doses. The final dose (dose #10) occurred the morning of testing, one hour prior to the start. Dogs were tested in three 15-minute testing phases in which behavior was scored every 5 minutes. Dogs were videotaped during the testing period.

[4] = 0.03 mg/kg, Separation, Day 6, vs. Day −1
[5] = 0.03 mg/kg, Separation, Day 20, vs. Day −1
[6] = 0.03 mg/kg, Stimulation, Day 6, vs. Day −1
[7] = 0.03 mg/kg, Stimulation, Day 20, vs. Day −1
[8] = 0.1 mg/kg, Separation Phase, Day 6, vs. placebo
[9] = 0.1 mg/kg, Separation Phase, Day 20, vs. placebo
[10] = 0.1 mg/kg, Separation, Day 6, vs. Day −1
[11] = 0.1 mg/kg, Separation, Day 20, vs. Day −1
[12] = 0.1 mg/kg, Stimulation Phase, Day 6, vs. placebo
[13] = 0.1 mg/kg, Stimulation Phase, Day 20, vs. placebo
[14] = 0.1 mg/kg, Stimulation, Day 6, vs. Day −1
[15] = 0.1 mg/kg, Stimulation, Day 20, vs. Day −1
[16] = 0.3 mg/kg, Separation, Day 6, vs. Day −1
[17] = 0.3 mg/kg, Separation, Day 20, vs. Day −1
[18] = 0.3 mg/kg, Stimulation, Day 6, vs. Day −1
[19] = 0.3 mg/kg, Stimulation, Day 20, vs. Day −1
[20] = 1 mg/kg, Separation Phase, Day 6, vs. placebo
[21] = 1 mg/kg, Separation Phase, Day 20, vs. placebo
[22] = 1 mg/kg, Stimulation Phase, Day 6, vs. placebo
[23] = 1 mg/kg, Stimulation Phase, Day 20, vs. placebo

Structure (SMILES): COc1ccc(C(C)(C)C)cc1CN[C@H]1C2CCN(CC2)[C@H]1C(c1ccccc1)c1ccccc1 [Compound of Formula 1, (2S.3S) (2-Benzhydryl-1-aza-bicyclo[2.2.2]oct-3-yl)-(5-tert-butyl-2-methoxy-benzyl)-amine]
- effectiveness at treating vocalization and hyperactivity resulting from separation ([1]; 0.1 mg/kg SC, compared with placebo): more effective than placebo
- Hyperactivity Mean, Geometric Mean Time [2, 4]: 19.4 s
- Vocalization Mean, Geometric Mean Time [2, 4]: 10.6 s
- Hyperactivity Mean, Geometric Mean Time [2, 5]: 20.1 s
- Vocalization Mean, Geometric Mean Time [2, 5]: 12.1 s
- Hyperactivity Mean, Geometric Mean Time [2, 6]: 38.6 s
- Vocalization Mean, Geometric Mean Time [2, 6]: 24.5 s
- Hyperactivity Mean, Geometric Mean Time [2, 7]: 28.2 s
- Vocalization Mean, Geometric Mean Time [2, 7]: 35.6 s
- Hyperactivity Mean, Geometric Mean Time [2, 8]: 24.1 s
- Vocalization Mean, Geometric Mean Time [2, 8]: 29.0 s
- Hyperactivity Mean, Geometric Mean Time [2, 9]: 19.1 s
- Vocalization Mean, Geometric Mean Time [2, 9]: 25.5 s
- Hyperactivity Mean, Geometric Mean Time [2, 10]: 24.7 s
- Vocalization Mean, Geometric Mean Time [2, 10]: 15.5 s
- Hyperactivity Mean, Geometric Mean Time [2, 11]: 14.8 s
- Vocalization Mean, Geometric Mean Time [2, 11]: 9.1 s
- Hyperactivity Mean, Geometric Mean Time [2, 12]: 46.7 s
- Vocalization Mean, Geometric Mean Time [2, 12]: 35.3 s
- Hyperactivity Mean, Geometric Mean Time [2, 13]: 51.2 s
- Vocalization Mean, Geometric Mean Time [2, 13]: 26.4 s
- Hyperactivity Mean, Geometric Mean Time [2, 14]: 48.8 s
- Vocalization Mean, Geometric Mean Time [2, 14]: 36.8 s
- Hyperactivity Mean, Geometric Mean Time [2, 15]: 28.4 s
- Vocalization Mean, Geometric Mean Time [2, 15]: 24.7 s
- Hyperactivity Mean, Geometric Mean Time [2, 16]: 49.7 s
- Vocalization Mean, Geometric Mean Time [2, 16]: 20.9 s
- Hyperactivity Mean, Geometric Mean Time [2, 17]: 39.1 s
- Vocalization Mean, Geometric Mean Time [2, 17]: 18.2 s
- Hyperactivity Mean, Geometric Mean Time [2, 18]: 43.1 s
- Vocalization Mean, Geometric Mean Time [2, 18]: 15.9 s
- Hyperactivity Mean, Geometric Mean Time [2, 19]: 41.9 s
- Vocalization Mean, Geometric Mean Time [2, 19]: 19.2 s
- Hyperactivity Mean, Geometric Mean Time [2, 20]: 23.3 s
- Vocalization Mean, Geometric Mean Time [2, 20]: 5.8 s
- Hyperactivity Mean, Geometric Mean Time [2, 21]: 16.8 s
- Vocalization Mean, Geometric Mean Time [2, 21]: 6.9 s
- Hyperactivity Mean, Geometric Mean Time [2, 22]: 22.7 s
- Vocalization Mean, Geometric Mean Time [2, 22]: 6.5 s
- Hyperactivity Mean, Geometric Mean Time [2, 23]: 36.0 s
- Vocalization Mean, Geometric Mean Time [2, 23]: 7.4 s
- most efficacious dosage in dogs among those dosages tested ([2]; SC, dosages tested 0.03, 0.1, 0.3, 1 mg/kg): 0.1 mg/kg

Structure (SMILES): COc1ccc(OC(F)(F)F)cc1CN[C@H]1CCCN[C@H]1c1ccccc1 [Compound of Formula 2]
- Separation Hyperactivity 0-15 min, behavior score as estimated duration of time ([3]; Dog ID 70954): 2 s
- Separation Vocalization 0-15 min, behavior score as estimated duration of time ([3]; Dog ID 70954): 0 s
- Separation Hyperactivity 0-15 min, behavior score as estimated duration of time ([3]; Dog ID 215155): 2 s
- Separation Vocalization 0-15 min, behavior score as estimated duration of time ([3]; Dog ID 215155): 12 s
- Separation Hyperactivity 0-15 min, behavior score as estimated duration of time ([3]; Dog ID 219622): 30 s
- Separation Vocalization 0-15 min, behavior score as estimated duration of time ([3]; Dog ID 219622): 22 s
- Separation Hyperactivity 0-15 min, behavior score as estimated duration of time ([3]; Dog ID 227641): 2 s
- Separation Vocalization 0-15 min, behavior score as estimated duration of time ([3]; Dog ID 227641): 2 s
- Separation Hyperactivity 0-15 min, behavior score as estimated duration of time ([3]; Dog ID 234923): 2 s
- Separation Vocalization 0-15 min, behavior score as estimated duration of time ([3]; Dog ID 234923): 0 s
- Separation Hyperactivity 0-15 min, behavior score as estimated duration of time ([3]; Dog ID 240893): 6 s
- Separation Vocalization 0-15 min, behavior score as estimated duration of time ([3]; Dog ID 240893): 0 s
- Separation Hyperactivity 0-15 min, behavior score as estimated duration of time ([3]; Dog ID 2943450): 18 s
- Separation Vocalization 0-15 min, behavior score as estimated duration of time ([3]; Dog ID 2943450): 30 s
- Separation Hyperactivity 0-15 min, behavior score as estimated duration of time ([3]; Dog ID HIHMFU): 12 s
- Separation Vocalization 0-15 min, behavior score as estimated duration of time ([3]; Dog ID HIHMFU): 0 s
- Separation Hyperactivity 0-15 min, behavior score as estimated duration of time ([3]; Mean of 8 dogs): 9.25 s
- Separation Vocalization 0-15 min, behavior score as estimated duration of time ([3]; Mean of 8 dogs): 8.25 s
- Hyperactivity Mean, Geometric Mean Time ([1]; Day 6): 24.1 s
- Vocalization Mean, Geometric Mean Time ([1]; Day 6): 29.0 s
- Hyperactivity Mean, Geometric Mean Time ([1]; Day 20): 19.1 s
- Vocalization Mean, Geometric Mean Time ([1]; Day 20): 25.5 s
